Measurements published in US6960597B2, “Aza-bridged-bicyclic amino acid derivatives as α4 integrin antagonists” (Orth-McNeil Pharmaceutical, Inc., priority 2000, dated 2005).
Where two headings read alike, the source gives them in different places. Each block holds one compound with its values, some of them ahead of it.

Key:
human α4β7 = target: T1, human α4β7 (Homo sapiens, UniProt P13612+P26010); assay: α4β7-K562 Cell Adhesion Assay (α4β7 Mediated Adhesion/VCAM-1); type: cell-based
T1 construct: expressed in transfected cells
T1 sequence (P13612 34-1032): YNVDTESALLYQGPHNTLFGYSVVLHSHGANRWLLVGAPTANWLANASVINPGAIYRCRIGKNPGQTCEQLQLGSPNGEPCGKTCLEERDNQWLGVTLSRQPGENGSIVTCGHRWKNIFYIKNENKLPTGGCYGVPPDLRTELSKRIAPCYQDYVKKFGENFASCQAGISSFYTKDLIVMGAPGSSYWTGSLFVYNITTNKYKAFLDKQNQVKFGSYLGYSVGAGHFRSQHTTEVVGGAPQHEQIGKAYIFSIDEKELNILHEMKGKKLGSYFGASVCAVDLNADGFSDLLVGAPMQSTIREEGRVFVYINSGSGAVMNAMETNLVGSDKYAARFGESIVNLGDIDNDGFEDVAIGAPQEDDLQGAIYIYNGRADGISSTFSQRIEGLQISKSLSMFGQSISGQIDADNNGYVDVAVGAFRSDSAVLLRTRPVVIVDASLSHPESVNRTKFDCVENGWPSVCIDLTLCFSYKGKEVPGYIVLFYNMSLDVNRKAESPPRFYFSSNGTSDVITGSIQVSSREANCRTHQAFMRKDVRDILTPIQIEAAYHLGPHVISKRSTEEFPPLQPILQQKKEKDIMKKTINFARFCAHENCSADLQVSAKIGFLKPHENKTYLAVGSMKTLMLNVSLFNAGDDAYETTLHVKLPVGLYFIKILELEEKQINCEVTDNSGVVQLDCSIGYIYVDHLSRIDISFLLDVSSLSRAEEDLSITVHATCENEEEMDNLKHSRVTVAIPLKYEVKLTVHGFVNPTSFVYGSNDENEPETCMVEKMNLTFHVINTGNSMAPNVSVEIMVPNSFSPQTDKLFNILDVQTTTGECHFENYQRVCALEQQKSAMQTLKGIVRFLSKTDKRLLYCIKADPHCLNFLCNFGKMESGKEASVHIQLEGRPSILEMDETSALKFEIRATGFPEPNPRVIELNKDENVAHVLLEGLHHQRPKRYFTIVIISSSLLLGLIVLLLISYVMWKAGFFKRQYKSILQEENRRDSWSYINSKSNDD
T1 sequence (P26010 20-798): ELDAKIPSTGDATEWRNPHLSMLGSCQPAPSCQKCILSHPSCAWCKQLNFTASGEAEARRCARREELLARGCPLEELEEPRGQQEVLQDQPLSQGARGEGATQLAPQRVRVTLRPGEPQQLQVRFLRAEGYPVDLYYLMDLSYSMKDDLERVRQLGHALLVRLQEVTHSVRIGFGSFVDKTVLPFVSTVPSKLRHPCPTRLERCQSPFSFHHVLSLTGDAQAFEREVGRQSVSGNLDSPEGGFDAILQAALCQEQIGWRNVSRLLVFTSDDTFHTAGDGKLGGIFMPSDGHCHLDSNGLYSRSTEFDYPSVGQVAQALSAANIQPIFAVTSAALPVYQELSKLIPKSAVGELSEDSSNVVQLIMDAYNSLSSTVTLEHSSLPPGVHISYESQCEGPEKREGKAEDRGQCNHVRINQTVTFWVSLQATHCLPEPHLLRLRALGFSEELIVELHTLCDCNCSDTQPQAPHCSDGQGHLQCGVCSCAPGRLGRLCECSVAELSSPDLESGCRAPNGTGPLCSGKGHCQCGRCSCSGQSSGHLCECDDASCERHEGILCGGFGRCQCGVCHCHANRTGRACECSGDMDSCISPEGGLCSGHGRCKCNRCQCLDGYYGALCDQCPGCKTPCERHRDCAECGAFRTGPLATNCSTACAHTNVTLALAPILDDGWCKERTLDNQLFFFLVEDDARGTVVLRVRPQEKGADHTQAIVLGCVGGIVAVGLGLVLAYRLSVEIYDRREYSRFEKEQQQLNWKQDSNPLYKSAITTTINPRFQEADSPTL
Description: α4β7-K562 Cell Adhesion Assay (α4β7 Mediated Adhesion/VCAM-1)
(§1) Immulon 96 well plates (Dynex) were coated with 100 μL recombinant hVCAM-1 at 4.0 μg/mL in 0.05 M NaCO3 buffer pH 9.0 overnight at 4° C. (R&D Systems). Plates were washed 3 times in PBS with 1% BSA and blocked for 1 h @ room temperature in this buffer. PBS was removed and compounds to be tested (50 μL) were added at 2× concentration. A stable cell line of K562 cells expressing human α4β7, (50 μL at 2×10^6/mL) labeled with 5 μM Calcein AM (Molecular Probes) for 1 h at 37° C., were added to each well and allowed to adhere for 1 h at room temperature. Plates were washed 3× in PBS+1% BSA and cells were lysed for 15 minutes in 100 μL of 1 M Tris pH 8.0 with 1% SDS. The plate was read at 485 nm excitation and 530 nm emission.

α4β1 integrin receptor = target: T2, α4β1 integrin receptor (Homo sapiens, UniProt P05556+P13612); assay: Ramos Cell Adhesion Assay (α4β1 Mediated Adhesion/VCAM-1); type: cell-based
T2 construct: Ramos Cell Adhesion Assay (α4β1 Mediated Adhesion/VCAM-1); endogenous in cells; host or cells: Ramos cells
T2 sequence (P05556 21-798, one chain of several): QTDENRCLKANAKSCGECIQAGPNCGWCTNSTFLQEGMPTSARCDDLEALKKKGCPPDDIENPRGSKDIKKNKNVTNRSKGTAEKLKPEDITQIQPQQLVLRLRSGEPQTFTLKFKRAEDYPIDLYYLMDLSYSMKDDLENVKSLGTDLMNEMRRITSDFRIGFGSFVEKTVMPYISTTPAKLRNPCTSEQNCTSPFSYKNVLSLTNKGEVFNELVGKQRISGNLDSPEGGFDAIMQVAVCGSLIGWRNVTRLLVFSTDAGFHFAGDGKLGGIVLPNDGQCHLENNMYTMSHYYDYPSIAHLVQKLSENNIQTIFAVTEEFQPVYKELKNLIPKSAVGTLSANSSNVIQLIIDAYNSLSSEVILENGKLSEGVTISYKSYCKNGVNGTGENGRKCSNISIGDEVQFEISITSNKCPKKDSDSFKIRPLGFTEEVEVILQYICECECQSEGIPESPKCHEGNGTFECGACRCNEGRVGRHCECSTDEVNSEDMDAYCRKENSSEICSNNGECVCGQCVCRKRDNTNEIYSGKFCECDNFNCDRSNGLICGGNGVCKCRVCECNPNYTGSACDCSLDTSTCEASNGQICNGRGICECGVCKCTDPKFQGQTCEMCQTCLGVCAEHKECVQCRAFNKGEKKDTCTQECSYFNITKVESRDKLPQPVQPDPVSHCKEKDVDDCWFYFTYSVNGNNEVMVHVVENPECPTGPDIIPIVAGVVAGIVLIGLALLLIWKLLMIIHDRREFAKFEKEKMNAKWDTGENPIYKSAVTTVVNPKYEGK
Description: Ramos Cell Adhesion Assay (α4β1 Mediated Adhesion/VCAM-1)
as §1, with “Ramos cells,” for “A stable cell line of K562 cells expressing human α4β7,”

[1] = Table IV, μM, read-out: Inhibition of Binding of K562 Cells to Immobilized VCAM-1 IC50
[2] = Table III, μM, read-out: Inhibition of Binding of Ramos Cells to Immobilized VCAM-1 IC50
[3] = Table III, read-out: Inhibition of Binding of Ramos Cells to Immobilized VCAM-1 IC50
[4] = Table IV, read-out: Inhibition of Binding of K562 Cells to Immobilized VCAM-1 IC50
[5] = Table I, racemic mixtures and resolved (S,S) and (R,S) diastereomers, read-out: Antagonist IC50 Activity α4β7
[6] = Table I, racemic mixtures and resolved (S,S) and (R,S) diastereomers, read-out: Antagonist IC50 Activity α4β1

Compound: CN(C)C(=O)Oc1ccc(C[C@H](NC(=O)[C@@H]2C3CCC(CC3)N2S(=O)(=O)c2ccccc2)C(=O)O)cc1 [Cpd 52a, O-[(dimethylamino)carbonyl]-N-[[(3S)-2-(phenylsulfonyl)-2-azabicyclo[2.2.2]oct-3-yl]carbonyl]-L-tyrosine]
IC50 (human α4β7): 0.436 µM | IC50 (human α4β7; read-out: Inhibition of Binding of K562 Cells to Immobilized VCAM-1 IC50, Table IV): 0.436 µM | IC50 (α4β1 integrin receptor; Antagonist IC50 Activity α4β1, Table I, racemic mixtures and resolved (S,S) and (R,S) diastereomers): 0.045 µM | IC50 (α4β1 integrin receptor; Inhibition of Binding of Ramos Cells to Immobilized VCAM-1 IC50, Table III): 0.04 µM

Compound: O=C(Nc1ccc(C[C@H](NC(=O)C2C3CCC(CC3)N2S(=O)(=O)c2ccccc2)C(=O)O)cc1)Nc1c(F)cccc1F (stereo partly drawn) [Cpd 34, 4-[[[(2,6-difluorophenyl)amino]carbonyl]amino]-N-[[2-(phenylsulfonyl)-2-azabicyclo[2.2.2]oct-3-yl]carbonyl]-L-phenylalanine]
IC50 (human α4β7; [1]): > 10 µM | IC50 (α4β1 integrin receptor; [2]): > 5 µM

Compound: O=C(Nc1ccc(C[C@H](NC(=O)[C@@H]2C3CCC(C3)N2S(=O)(=O)c2ccccc2)C(=O)O)cc1)c1c(Cl)cccc1Cl (stereo partly drawn) [Cpd 16a, 4-[(2,6-dichlorobenzoyl)amino]-N-[[(3S)-2-(phenylsulfonyl)-2-azabicyclo[2.2.1]hept-3-yl]carbonyl]-L-phenylalanine]
IC50 (human α4β7; [5]): 2.09 µM | IC50 (α4β1 integrin receptor; [6]): 0.153 µM | IC50 (α4β1 integrin receptor; [3]): 0.153 µM

Compound: CC(C)N(C(=O)Oc1ccc(C[C@H](NC(=O)C2C3CCC(CC3)N2S(=O)(=O)c2ccccc2)C(=O)O)cc1)C(C)C (stereo partly drawn) [Cpd 57, O-[[bis(1-methylethyl)amino]carbonyl]-N-[[2-(phenylsulfonyl)-2-azabicyclo[2.2.2]oct-3-yl]carbonyl]-L-tyrosine]
IC50 (human α4β7; [1]): > 5 µM | IC50 (α4β1 integrin receptor; [3]): 0.757 µM

Compound: Cc1ccc(S(=O)(=O)N2C3CCC(CC3)C2C(=O)N[C@@H](Cc2ccc(NC(=O)c3c(Cl)cc(Cl)cc3Cl)cc2)C(=O)O)cc1 (stereo partly drawn) [Cpd 2, 4-[(2,4,6-trichlorobenzoyl)amino]-N-[[2-[(4-methylphenyl)sulfonyl]-2-azabicyclo[2.2.2]oct-3-yl]carbonyl]-L-phenylalanine]
IC50 (human α4β7; [4]): 0.098 µM | IC50 (α4β1 integrin receptor; [3]): 0.051 µM

Compound: COc1cccc(OC)c1C(=O)Nc1ccc(C[C@H](NC(=O)[C@H]2C3CCC(C3)N2S(=O)(=O)c2ccccc2)C(=O)O)cc1 (stereo partly drawn) [Cpd 19b, 4-[(2,6-dimethoxybenzoyl)amino]-N-[[(3R)-2-(phenylsulfonyl)-2-azabicyclo[2.2.1]hept-3-yl]carbonyl]-L-phenylalanine]
IC50 (human α4β7; [5]): 3.22 µM | IC50 (α4β1 integrin receptor; [6]): 1.21 µM | IC50 (α4β1 integrin receptor; [3]): 1.21 µM

Compound: Cc1ccc(S(=O)(=O)N2C3CCC(CC3)C2C(=O)N[C@@H](Cc2ccc(C#Cc3ccc(C(C)(C)C)cc3)cc2)C(=O)O)cc1 (stereo partly drawn) [Cpd 23, 4-[[4-(1,1-dimethylethyl)phenyl]ethynyl]-N-[[2-[(4-methylphenyl)sulfonyl]-2-azabicyclo[2.2.2]oct-3-yl]carbonyl]-L-phenylalanine]
IC50 (human α4β7; [1]): > 10 µM | IC50 (α4β1 integrin receptor; [3]): 1.42 µM

Compound: O=C(Nc1ccc(C[C@H](NC(=O)[C@@H]2C3CCC(C3)N2S(=O)(=O)c2ccccc2)C(=O)O)cc1)c1c(F)cccc1F (stereo partly drawn) [Cpd 5a, 4-[(2,6-difluorobenzoyl)amino]-N-[[(3S)-2-(phenylsulfonyl)-2-azabicyclo[2.2.1]hept-3-yl]carbonyl]-L-phenylalanine]
IC50 (human α4β7; [5]): 0.062 µM | IC50 (α4β1 integrin receptor; [6]): 0.081 µM | IC50 (α4β1 integrin receptor; [3]): 0.081 µM

Continued, values first:

IC50 (human α4β7; [1]): > 10 µM | IC50 (α4β1 integrin receptor; [2]): > 5 µM
Compound: O=C(O)[C@H](Cc1ccc(OCc2c(Cl)cccc2Cl)cc1)NC(=O)[C@H]1C2CCC(CC2)N1S(=O)(=O)c1ccccc1 [Cpd 41, O-[(2,6-dichlorophenyl)methyl]-N-[[(3R)-2-(phenylsulfonyl)-2-azabicyclo[2.2.2]oct-3-yl]carbonyl]-L-tyrosine]

IC50 (human α4β7; [1]): > 10 µM | IC50 (α4β1 integrin receptor; [3]): 3.17 µM
Compound: CC(C)(C)Oc1ccc(C[C@H](NC(=O)C2C3CCC(CC3)N2S(=O)(=O)c2ccccc2)C(=O)O)cc1 (stereo partly drawn) [Cpd 45, O-(1,1-dimethylethyl)-N-[[2-(phenylsulfonyl)-2-azabicyclo[2.2.2]oct-3-yl]carbonyl]-L-tyrosine]

IC50 (human α4β7; [4]): 0.047 µM | IC50 (α4β1 integrin receptor; [3]): 0.139 µM
Compound: O=C(N[C@@H](Cc1ccc(OC(=O)N2CCOCC2)cc1)C(=O)O)C1C2CCC(CC2)N1S(=O)(=O)c1ccccc1 (stereo partly drawn) [Cpd 56, O-(4-morpholinylcarbonyl)-N-[[2-(phenylsulfonyl)-2-azabicyclo[2.2.2]oct-3-yl]carbonyl]-L-tyrosine]

IC50 (human α4β7; [4]): 0.223 µM | IC50 (α4β1 integrin receptor; [3]): 0.054 µM
Compound: O=C(Nc1ccc(C[C@H](NC(=O)[C@@H]2C3CCC(CC3)N2S(=O)(=O)c2ccccc2)C(=O)O)cc1)c1ccncc1 [Cpd 50a, 4-[(4-pyridinylcarbonyl)amino]-N-[[(3S)-2-(phenylsulfonyl)-2-azabicyclo[2.2.2]oct-3-yl]carbonyl]-L-phenylalanine]

IC50 (human α4β7; [1]): > 50 µM | IC50 (α4β1 integrin receptor; [3]): 0.873 µM
Compound: CC1(C)C(C(=O)Nc2ccc(C[C@H](NC(=O)[C@@H]3C4CCC(CC4)N3S(=O)(=O)c3ccccc3)C(=O)O)cc2)C1(C)C [Cpd 68, 4-[[(2,2,3,3-tetramethylcyclopropyl)carbonyl]amino]-N-[[(3S)-2-(phenylsulfonyl)-2-azabicyclo[2.2.2]oct-3-yl]carbonyl]-L-phenylalanine]

IC50 (human α4β7; [4]): 0.394 µM | IC50 (α4β1 integrin receptor; [3]): 0.193 µM
Compound: CCOc1ccc2ccccc2c1C(=O)Nc1ccc(C[C@H](NC(=O)[C@@H]2C3CCC(CC3)N2S(=O)(=O)c2ccccc2)C(=O)O)cc1 [Cpd 65, 4-[[(2-ethoxy-1-naphthalenyl)carbonyl]amino]-N-[[(3S)-2-(phenylsulfonyl)-2-azabicyclo[2.2.2]oct-3-yl]carbonyl]-L-phenylalanine]

IC50 (human α4β7; [4]): 0.279 µM | IC50 (α4β1 integrin receptor; [3]): 0.022 µM
Compound: O=C(Nc1ccc(C[C@H](NC(=O)C2C3C=CC(CC3)N2S(=O)(=O)c2ccccc2)C(=O)O)cc1)c1c(Cl)cccc1Cl (stereo partly drawn) [Cpd 42, 4-[(2,6-dichlorobenzoyl)amino]-N-[[2-(phenylsulfonyl)-2-azabicyclo[2.2.2]oct-5-en-3-yl]carbonyl]-L-phenylalanine]
